# Source: paper PMC12378234, “Enzyme-mediated aminoglycoside resistance without target mimicry” (Communications Chemistry, 2025)
# Where “and” joins values, the source holds several entries; their conditions need not be identical. Equal entries are not always repeated. Where two headings read alike, the source gives them in different places.
# Legend:
# [1] = test system: empty pUCP18 vector transformed E. coli; assay: Antibiotic susceptibility testing, endpoint MIC assay; assay type: cell-based; settings: Escherichia coli; empty pUCP18 vector control E. coli; after 20 h of growth; read-out: Endpoint minimum inhibitory concentration (MIC)
# Method: (§1) Ten milliliters of cultures of LB containing […] ampicillin were inoculated from glycerol stocks of transformed BL21(DE3) E. coli containing genes expressing the proteins of interest in pUCP18 vectors. Experiments were performed using 6xHis-tagged fusion-proteins, as well as untagged wild-type proteins. These cultures were incubated at 37 °C with 200 rpm agitation for 16 h. Turbidity was measured through OD600 with a NanoDrop OneC Spectrometer (Thermo Scientific). From the initial cultures, secondary 10 mL cultures were prepared with OD600 values of 0.1. These cultures were grown until OD600 values of 0.4–0.6 were reached and diluted to bring all cultures to the same OD600. Cultures were induced with 1 mM Isopropyl β-D-1-thiogalactopyranoside and incubated for 4 h. Cultures were diluted to 1 × 10^6 cells mL^−1. Two microliters of culture was added to 198 μL of LB with an appropriate aminoglycoside titration concentration. The formulated 96-well culture plate (Sarstedt) was incubated at 37 °C with 120 rpm orbital agitation. The remainder of the bacterial culture was immediately lysed and processed for Western blotting. OD600 was measured after 20 h using the Molecular Devices Spectra MAX 190 plate reader.
# [2] = test system: BL21(DE3) E. coli transformed with pUCP18 vector expressing AAC(3)-Ia; assay: as above; assay type: cell-based; settings: Escherichia coli, 20 h, read-out: Endpoint minimum inhibitory concentration (MIC)
# Method: as §1
# [3] = test system: BL21(DE3) E. coli transformed with pUCP18 vector expressing AAC(3)-IIIa; assay: as above; assay type: cell-based; settings: Escherichia coli, 20 h, read-out: Endpoint minimum inhibitory concentration (MIC)
# Method: as §1
# [4] = test system: BL21(DE3) E. coli transformed with pUCP18 vector expressing AAC(3)-XIa; assay: as above; assay type: cell-based; settings: Escherichia coli, 20 h, read-out: Endpoint minimum inhibitory concentration (MIC)
# Method: as §1
# [5] = target: T1, AAC(3)-IIIa (Pseudomonas aeruginosa, UniProt P29808); assay: Isothermal titration calorimetry; assay type: binding, P. aeruginosa
# T1 construct: 6xHis-tag (thrombin-cleavable, pET15b) (N); made in house; host or cells: LOBSTR E. coli
# Method: To accurately measure protein ligand interactions, the concentration of our proteins of interest was measured spectrophotometrically using the NanoDrop OneC Spectrometer (Thermo Scientific). ITC experiments were performed on a MicroCal iTC 200 (General Electric) at 25 °C with stirring at 750 rpm. Unique buffer solutions were used for each enzyme. AAC(3)-Ia was prepared in 50 mM HEPES, pH 7, and 150 mM NaCl. AAC(3)-IIIa was prepared in 120 mM Tris, pH 7.5, and 150 mM NaCl. AAC(3)-XIa was prepared in 20 mM Tris, pH 7.5, and 150 mM NaCl. The cell contained 550 μM AAC(3)-Ia, 350 μM AAC(3)-IIIa, or 450 μM AAC(3)-XIa. All experiments also contained 5000 μM of coenzyme A trilithium salt in the cell. […] In all ITC experiments, aminoglycosides were prepared in the same buffering solution as the target protein. The ligands were injected 29 times ([…] per injection) with a 180 s interval between injections. Results were analyzed using ORIGIN software version 7E (MicroCal) using the molecular weight of a single protomer of each protein and fitted with a two-set of sites binding model (Supplementary Fig. 5). Data analysis was performed in Microsoft Excel and GraphPad5 software. One-way ANOVA and Tukey’s multiple comparison tests were used to determine the statistical significance of binding affinities.
# [6] = test system: BL21(DE3) E. coli transformed with pUCP18 vector expressing untagged AAC(3)-XIa; assay type: cell-based
# Method: (§2) Ten milliliters of LB containing […] ampicillin were inoculated from glycerol stocks of transformed BL21(DE3) E. coli containing genes expressing the proteins of interest in pUCP18 vectors. These cultures were incubated at 37 °C with 200 rpm agitation for 16 h. Turbidity was measured through OD600 with a NanoDrop OneC Spectrometer (Thermo Scientific). From the initial cultures, secondary 10 mL cultures were prepared with OD600 values of 0.1. These cultures were grown until OD600 values of 0.4–0.6 were reached and diluted to bring all cultures to the same OD600. Cultures were induced with 1 mM Isopropyl β-D-1-thiogalactopyranoside and incubated for 4 h. Two microliters of culture was added to 198 μL of LB with an appropriate aminoglycoside titration concentration. Each titration point was repeated n = 4 times. The formulated 96-well culture plate (Sarstedt) had OD600 measured on a 20-min interval over 17 h using a BioTek Cytation 5 Cell Imaging Multimode Reader, incubating at 37 °C with 282 cpm orbital agitation. Experiments were repeated with fresh cultures on separate days to ensure consistent trends. Data was analyzed in Microsoft Excel and GraphPad5. The remainder of the culture immediately had its RNA isolated for qPCR experiments.
# [7] = test system: BL21(DE3) E. coli transformed with pUCP18 vector expressing untagged AAC(3)-Ia; assay type: cell-based; settings: E. coli expressing AAC(3)-Ia; 12 μg mL^−1 antibiotic; 17 h
# Method: as §2
# [8] = test system: BL21(DE3) E. coli transformed with pUCP18 vector expressing untagged AAC(3)-IIIa; assay type: cell-based; settings: E. coli expressing AAC(3)-IIIa; 12 μg mL^−1 antibiotic; 17 h
# Method: as §2
# [9] = first set of sites, 25 °C, with coenzyme A, n = 3
# [10] = second set of sites, 25 °C, with coenzyme A, n = 3
# T1 sequence (P29808 whole entry): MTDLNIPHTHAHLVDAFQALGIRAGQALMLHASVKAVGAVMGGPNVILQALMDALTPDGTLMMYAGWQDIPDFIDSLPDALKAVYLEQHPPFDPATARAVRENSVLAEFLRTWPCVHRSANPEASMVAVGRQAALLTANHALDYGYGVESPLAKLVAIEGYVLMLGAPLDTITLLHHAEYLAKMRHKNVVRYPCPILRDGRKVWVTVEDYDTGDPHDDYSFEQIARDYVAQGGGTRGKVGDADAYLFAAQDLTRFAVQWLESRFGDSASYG
smiles,measurement,setting,value
"CN[C@@H]1[C@@H](O)[C@@H](O[C@@H]2[C@@H](O)[C@H](O[C@H]3OC(CN)=CC[C@H]3N)[C@@H](N)C[C@H]2N)OC[C@]1(C)O [Sisomicin, sisomicin]",MIC,[1],6 µg/mL
same,MIC,[2],6 µg/mL
same,MIC,[3],12 µg/mL
same,MIC,[4],12 µg/mL
same,TΔS,[5]; [9],-0.411 ± 0.318 kcal/mol
same,ΔG,[5]; [9],-8.05 ± 0.474 kcal/mol
same,ΔH,[5]; [9],-8.46 ± 0.351 kcal/mol
same,N (sites),"[5]; first set of sites, two-set of sites model, 25 °C, with coenzyme A, n = 3",0.35 ± 0.03 sites
same,Kd,"[5]; first set of sites, two-set of sites model, 25 °C, with coenzyme A, n = 3, read-out: Kd",1300 ± 100 nM
same,Kd,"[5]; individual replicates, raw data behind Fig. 6, read-out: Kd",1420 nM and 1170 nM and 1230 nM
same,N2 (sites),[5]; [10],0.56 ± 0.04 sites
same,TΔS 2,[5]; [10],2 ± 0.146 kcal/mol
same,ΔG 2,[5]; [10],-7.74 ± 0.204 kcal/mol
same,ΔH 2,[5]; [10],-5.74 ± 0.143 kcal/mol
same,Kd,"[5]; second set of sites, 25 °C, with coenzyme A, n = 3, read-out: Kd2",2100 ± 200 nM
same,OD600 growth curve,"[6]; 3 ug/mL Sisomicin, time point 12:39:10",0.741 and 0.631 and 0.615 and 0.786
same,OD600 growth curve,"[6]; 3 ug/mL Sisomicin, time point 12:59:10",0.747 and 0.634 and 0.621 and 0.795
same,OD600 growth curve,"[6]; 3 ug/mL Sisomicin, time point 13:19:10",0.745 and 0.632 and 0.619 and 0.794
same,OD600 growth curve,"[6]; 3 ug/mL Sisomicin, time point 13:39:10",0.742 and 0.632 and 0.619 and 0.79
same,OD600 growth curve,"[6]; 3 ug/mL Sisomicin, time point 13:59:10",0.738 and 0.632 and 0.618 and 0.787
same,OD600 growth curve,"[6]; 3 ug/mL Sisomicin, time point 14:19:10",0.744 and 0.634 and 0.623 and 0.797
same,OD600 growth curve,"[6]; 3 ug/mL Sisomicin, time point 14:39:10",0.747 and 0.635 and 0.625 and 0.799
same,OD600 growth curve,"[6]; 3 ug/mL Sisomicin, time point 14:59:10",0.745 and 0.635 and 0.627 and 0.795
same,OD600 growth curve,"[6]; 6 ug/mL Sisomicin, time point 12:39:10",0.62 and 0.602 and 0.749 and 0.849
same,OD600 growth curve,"[6]; 6 ug/mL Sisomicin, time point 12:59:10",0.627 and 0.606 and 0.748 and 0.838
same,OD600 growth curve,"[6]; 6 ug/mL Sisomicin, time point 13:19:10",0.634 and 0.612 and 0.751 and 0.829
same,OD600 growth curve,"[6]; 6 ug/mL Sisomicin, time point 13:39:10",0.639 and 0.613 and 0.744 and 0.819
same,OD600 growth curve,"[6]; 6 ug/mL Sisomicin, time point 13:59:10",0.641 and 0.612 and 0.741 and 0.805
same,OD600 growth curve,"[6]; 6 ug/mL Sisomicin, time point 14:19:10",0.645 and 0.615 and 0.738 and 0.792
same,OD600 growth curve,"[6]; 6 ug/mL Sisomicin, time point 14:39:10",0.654 and 0.626 and 0.749 and 0.784
same,OD600 growth curve,"[6]; 6 ug/mL Sisomicin, time point 14:59:10",0.663 and 0.629 and 0.759 and 0.771
same,OD600 growth curve,"[6]; 6 ug/mL Sisomicin, time point 15:19:10",0.67 and 0.64 and 0.762
same,OD600 growth curve,"[6]; 12 ug/mL Sisomicin, time point 12:39:10",0.093 and 0.101 and 0.109 and 0.105
same,OD600 growth curve,"[6]; 12 ug/mL Sisomicin, time point 12:59:10",0.093 and 0.101 and 0.109 and 0.105
same,OD600 growth curve,"[6]; 12 ug/mL Sisomicin, time point 13:19:10",0.093 and 0.101 and 0.108 and 0.104
same,OD600 growth curve,"[6]; 12 ug/mL Sisomicin, time point 13:39:10",0.093 and 0.101 and 0.108 and 0.104
same,OD600 growth curve,"[6]; 12 ug/mL Sisomicin, time point 13:59:10",0.093 and 0.1 and 0.108 and 0.104
same,OD600 growth curve,"[6]; 12 ug/mL Sisomicin, time point 14:19:10",0.093 and 0.1 and 0.108 and 0.103
same,OD600 growth curve,"[6]; 12 ug/mL Sisomicin, time point 14:39:10",0.093 and 0.1 and 0.108 and 0.103
same,OD600 growth curve,"[6]; 12 ug/mL Sisomicin, time point 14:59:10",0.093 and 0.1 and 0.107 and 0.103
same,OD600 growth curve,"[6]; 12 ug/mL Sisomicin, time point 15:19:10",0.093
same,Growth (OD600 growth curve),"[6]; E. coli expressing AAC(3)-XIa, 12 μg mL^−1 antibiotic, 17 h",none of the strains of transformed E. coli were able to grow at all
same,Growth (OD600 growth curve),[7],none of the strains of transformed E. coli were able to grow at all
same,Growth (OD600 growth curve),[8],none of the strains of transformed E. coli were able to grow at all
